Assay results: a melting point compilation (Tetko et al.; mined from patent text by program, amines drawn as free bases though some values may be those of a salt)

melting point [°C]	Compound
227 to 231	CCC(C)(C)Nc1c(NCc2c(C)cccc2C)c(=O)c1=O
130	Cc1cccc(C(=O)Nc2ccc(N3CCN(Cc4ccc[nH]4)CC3)nc2)c1-c1ccc(C(C)C)cc1
82 to 84	FC(F)(F)c1ccc(-c2nc(Cl)cc(-c3ccccc3)n2)cc1
143 to 144	OCc1nccn1CCCc1ccc(OCc2coc(/C=C/c3ccccc3)n2)cc1
115 to 117	CC(C)(C)OC(=O)N=C(N)N(CCc1ccc(OCCC2Oc3c(Cl)cc(Cl)cc3N(Cc3cccc(Cl)c3)C2=O)cc1)C(=O)OC(C)(C)C (stereo unspecified)
113	CCCn1c(-c2ccccc2)nc2cc(CO)ccc21
137 to 138	COc1cccc(C(O)C(C)(C)NC(=O)Cc2ccc(OC)c(OC)c2)c1 (stereo unspecified)
58 to 62	CN(CCCc1ccccc1)[C@H]1CC[C@H](c2ccc3[nH]c(=O)oc3c2)CC1
242 to 247	O=C(O)c1cc2cnc3ccccc3n2c1
202 to 204	COc1cccc(CC2NC(=O)NC2=O)c1OCc1ccccc1 (racemic)
165 to 166	COC(=O)c1cccc2nc(OC)n(Cc3ccc(-c4ccccc4-c4nnn[nH]4)cc3)c12
232 to 235	CC(=O)N(C)c1c(C(=O)c2ccccc2)[nH]c2cc(Cl)ccc12
144 to 145	COC(=O)CCc1cc(C(C)(C)C)c2oc(-c3ccc(-c4nc5cc(CCC(=O)OC)cc(C(C)(C)C)c5o4)s3)nc2c1
258 to 260	Cc1onc(-c2ccccc2)c1-c1[nH]c2ccccc2c1C(=O)C(=O)N(C)C
91 to 93	O=C1NC(=O)C(c2cn3c4c(cccc24)CCC3)C1c1ccc(OCc2ccccc2)cc1 (stereo unspecified)
140	COc1cc2c(cc1OC)CN(CCCCc1ccc(NC(=O)c3cccc4c(=O)c5cccc(C)c5[nH]c34)cc1)CC2
188 to 192	NC(=O)N(O)CCNC(=O)c1csc(-c2ccccc2)n1
136	C[C@@H]1CCCN1CCCOc1ccc(-c2ccc(S(=O)(=O)Cc3ccccc3)nn2)cc1
160 to 161	CC(C)(C)C(NC(=O)CCc1ccccc1)Nc1c(Nc2cccnc2Cl)c(=O)c1=O (stereo unspecified)
70	O=C(O)CCCOc1ccc(CCNC(=O)C2Cc3ccccc3N2S(=O)(=O)c2ccc(-c3cccc(C(F)(F)F)c3)cc2)cc1 (stereo unspecified)
130 to 131	COc1ccc(CCc2oc3ccc(C#N)cc3c2C(C)=O)cc1
153 to 155	O=C1c2cccc3cccc(c23)C(O)N1CCN1CCC(Cc2ccccc2)CC1 (stereo unspecified)
97 to 98.5	COc1ccccc1-c1cc(=O)c2ccccc2o1
79 to 83	C=CC[C@@H]1C[C@@H](COc2ccc(CCCCNC(=O)OC(C)(C)C)cc2)N(CCc2ccc3ccccc3c2)C1=O
236	COC(=O)c1c(N)c2ccccc2[nH]c1=O
88 to 93	COc1cc(C(=O)NS(=O)(=O)c2ccccc2C)ccc1Cc1cccc2ccc(CCCCC(=O)N(C)C)cc12
119 to 120	Cc1c(C2=CCC(Cc3ccccc3)(N(C)C)CC2)[nH]c2ccc(C(F)(F)F)cc12 (stereo unspecified)
98 to 100	C=C[C@H](O)[C@H](Cc1ccccc1)NC(=O)OC(C)(C)C
115 to 116	CCCCc1ncc(CO)n1Cc1ccc(OCc2ccccc2C(=O)O)cc1

More lines, now with the values behind:

Compound	melting point [°C]
CC(C)c1ccc(N2COCN(C)C2=O)cc1F	45
FC(F)(F)c1ccc2c(C3CCN(CCCOc4cccc5[nH]ccc45)CC3)c[nH]c2c1	92 to 97
CC(=O)c1ccc2c(c1)C1(C)C3(C)CCC(C3)C1(C)O2 (stereo unspecified)	140 to 142
COc1ccc(Cn2nc(C3CCN(CCc4c(C)nc5n(c4=O)CCS5)CC3)c3ccc(F)cc32)cc1	146
CCC(=O)Nc1c(-c2c(F)cc(F)cc2F)c(Cl)nc2ncnn12	162 to 165
N#Cc1ncn2c1[C@@H]1CCN1C(=O)c1c-2ccc(F)c1Cl	225 to 228
CCOCc1nc2c(N)nc3ccccc3c2n1C[C@@H](O)CO	99 to 100
CC(=O)Cc1nc2ccccc2s1	118 to 119
COc1ccc(-c2cc(C(N)(C(F)(F)F)C(F)(F)F)sc2-c2ccc(OC)cc2)cc1	87 to 90
Nc1nc[nH]c1-c1n[nH]c(-c2ccc(-c3ccccc3)cc2)n1	230
COC(=O)Cc1cc2c(c([N+](=O)[O-])c1)NCC2	113 to 115
COc1ccc2c(=O)c(OS(C)(=O)=O)cn(C)c2c1	163
CCOP(=S)(OCC)Oc1nsc(C)c1C(N)=O	68
C=CCOC(=O)CCCOc1cc([N+](=O)[O-])c(CO)cc1OC	73 to 75
COC1OC(=O)c2cccc([N+](=O)[O-])c21 (stereo unspecified)	115 to 118
CN(C(=O)c1ccc2nonc2c1)C1CCC(F)(F)CC1	137 to 138
Cc1cc(-n2c(=O)[nH]c3ccccc32)cc2c1NC(=O)CC2C (stereo unspecified)	250 to 254
CCSc1nc2c(N)nc(-c3ccncc3)nc2[nH]1	168 to 170
Cc1[nH]c(=O)sc1C(=O)c1ccc(F)cc1	209 to 210
c1ccc(C(c2ccccc2)N2C(=NCCCn3ccnc3)c3cccc4cccc2c34)cc1	142 to 143
COc1ccc(OC)c(C(=O)CC(O)C(=O)O)c1 (stereo unspecified)	89

Compound	melting point [°C]
CCc1coc2c(-c3ccc(S(C)(=O)=O)cc3)c(-c3ccc(F)cc3)nn12	205 to 208
O=[N+]([O-])c1sc(Nc2c(Cl)cccc2Cl)nc1Cl	141
O=C(NCc1ccc(F)cc1)c1cccc(C(=O)NCc2ccc(F)cc2)c1	190 to 191
CC(C)n1c(=O)c2c(-c3nc(C4CC4)no3)ncn2c2cccnc21	221 to 223
COC(=O)c1sc(OC)c(Cl)c1O	109 to 111
CCOc1cc(C(Cl)(Cl)Cl)cc(OC)n1	36 to 38
CCOC(=O)c1cnc2cc(NC(C)=O)c(F)cc2c1O	320
CN1C2CCC1CN(c1ccc(-c3cccs3)nn1)C2	156
Cc1nc(OCC(F)(F)F)c([N+](=O)[O-])c(N2CCN(c3ccc(F)cc3)CC2)n1	92 to 95
O=CNCC1CN(c2c(F)cc3c(=O)c(C(=O)O)cn(C4CC4)c3c2F)CCO1 (stereo unspecified)	210 to 213
N#Cc1ccc(C(=C2CCCC2)c2nc[nH]n2)cc1	72
C#CCNC(=C[N+](=O)[O-])SC	131 to 132
O=C(NCC1CCCC1)c1ccc2cc[nH]c2c1	148 to 150
CNC(=O)c1cc(Cl)cc(C)c1NC(=O)c1cc(Br)nn1-c1ncccc1Cl	162 to 164
C=CC(=O)Nc1ccc2c(c1)nnn2C(C)=O	167 to 170
O=C(NCCCCCC1CCSS1)c1cccnc1 (stereo unspecified)	41 to 44
CCCCCCCCCCCCCCCCSCC(CNS(=O)(=O)CCCCl)COC (stereo unspecified)	41.5 to 43
CSc1nn2c(N)cc(C)nc2c1S(=O)(=O)c1ccc(Cl)cc1	> 230
NC(=O)c1ccnc(NC(=O)N2CCC3(CCc4cc(F)ccc4O3)CC2)c1	265 to 267
COc1cc(OC)c(C2=NC(NC(=O)Nc3ccccc3C)C(=O)N(C)c3ccccc32)c(OC)c1 (stereo unspecified)	50
COCOc1ccc(O)c(CC#N)c1	68 to 69
